Reference: US20120282346A1, “BRIMONIDINE COMPOSITIONS FOR TREATING ERYTHEMA” (priority 2007, published 2012)

Tested on: erythema
Settings: high dosage gel (0.20% by weight brimonidine tartrate), applied topically each day for 28 days; across all visits (days 1, 14, 28), evaluated up to eight hours; patients with moderate to severe erythema; p<0.001
Experimental: A double-blind, placebo-controlled study was conducted at six centers of 110 patients with moderate to severe erythema. […] On days 1, 14, and 28, patients applied the gel under the supervision of clinical staff in the study centers, and were evaluated at set intervals for up to eight hours.
Evaluation led to a Clinician's Erythema Assessment Score (CEA). Each patients' erythema was rated on a scale from 0 to 4, with 0 being the rating for no erythema and 4 being the rating for extreme erythema.
Also, a side effect profile was established.

Brc1c(N=C2NCCN2)ccc2nccnc12.O=C(O)C(O)C(O)C(=O)O [brimonidine tartrate, 5-bromo-6-(2-imidazolidinylideneamino) quinoxaline L-tartrate]
reduction in the average CEA (Clinician's Erythema Assessment Score, scale 0 to 4): statistically significant reduction
